Measurements as given in patent publication US9975882B2, “Heteroaromatic compounds as BTK inhibitors” (Boehringer Ingelheim International GmbH, priority 2015, dated 2018).

Experiments:
[1] = molecular target: human full length His-tagged BTK (Homo sapiens (Human), UniProt Q06187); test: BTK Lanthscreen Eu Kinase Binding assay; settings: 2 nM BTK
Protocol: BTK Lanthscreen® Eu Kinase Binding Assay:
A Lanthscreen® Eu Kinase Binding assay (Life Technologies) is performed to quantitate the ability of test compounds to bind to BTK. The assay is based on the binding and displacement of Alexa Fluor647-labeled Kinase Tracer #236 to the ATP-binding site of human full length His-tagged BTK (Life Technologies cat #PV3587) with TR-FRET detection using a europium-labeled anti-His antibody. The assay is assembled in 384-well low volume NBS black plates (Corning) where 2 nM BTK and test compound in DMSO at varying concentrations are pre-incubated for 30 min at 28° C. in assay buffer consisting of 50 mM HEPES, pH 7.4, 10 mM MgCl2, 1 mM EGTA. 100 μM Na3VO4 and 0.01% Brij 35. Then, 2 nM of Eu-anti His antibody and 30 nM Kinase Tracer are added and incubated for 60 min at 28° C. Following incubation, TR-FRET signal is read on an Envision plate reader (Excitation: 340 nm; Emissions: 615 and 665 nm). The 665:615 nm emission ratio is calculated and converted to POC compared to control and blank wells.

[2] = molecular target: EGFR (EGFR phosphorylation in A431 cells) (Homo sapiens (Human), UniProt P00533); test: Inhibition of EGFR autophosphorylation in A431 human epithelial cells stimulated with EGF; format: cell-based; settings: EGF 60 ng/mL, read-out: A431 p-EGFR IC50
Chain of EGFR (EGFR phosphorylation in A431 cells) (P00533 25-1210): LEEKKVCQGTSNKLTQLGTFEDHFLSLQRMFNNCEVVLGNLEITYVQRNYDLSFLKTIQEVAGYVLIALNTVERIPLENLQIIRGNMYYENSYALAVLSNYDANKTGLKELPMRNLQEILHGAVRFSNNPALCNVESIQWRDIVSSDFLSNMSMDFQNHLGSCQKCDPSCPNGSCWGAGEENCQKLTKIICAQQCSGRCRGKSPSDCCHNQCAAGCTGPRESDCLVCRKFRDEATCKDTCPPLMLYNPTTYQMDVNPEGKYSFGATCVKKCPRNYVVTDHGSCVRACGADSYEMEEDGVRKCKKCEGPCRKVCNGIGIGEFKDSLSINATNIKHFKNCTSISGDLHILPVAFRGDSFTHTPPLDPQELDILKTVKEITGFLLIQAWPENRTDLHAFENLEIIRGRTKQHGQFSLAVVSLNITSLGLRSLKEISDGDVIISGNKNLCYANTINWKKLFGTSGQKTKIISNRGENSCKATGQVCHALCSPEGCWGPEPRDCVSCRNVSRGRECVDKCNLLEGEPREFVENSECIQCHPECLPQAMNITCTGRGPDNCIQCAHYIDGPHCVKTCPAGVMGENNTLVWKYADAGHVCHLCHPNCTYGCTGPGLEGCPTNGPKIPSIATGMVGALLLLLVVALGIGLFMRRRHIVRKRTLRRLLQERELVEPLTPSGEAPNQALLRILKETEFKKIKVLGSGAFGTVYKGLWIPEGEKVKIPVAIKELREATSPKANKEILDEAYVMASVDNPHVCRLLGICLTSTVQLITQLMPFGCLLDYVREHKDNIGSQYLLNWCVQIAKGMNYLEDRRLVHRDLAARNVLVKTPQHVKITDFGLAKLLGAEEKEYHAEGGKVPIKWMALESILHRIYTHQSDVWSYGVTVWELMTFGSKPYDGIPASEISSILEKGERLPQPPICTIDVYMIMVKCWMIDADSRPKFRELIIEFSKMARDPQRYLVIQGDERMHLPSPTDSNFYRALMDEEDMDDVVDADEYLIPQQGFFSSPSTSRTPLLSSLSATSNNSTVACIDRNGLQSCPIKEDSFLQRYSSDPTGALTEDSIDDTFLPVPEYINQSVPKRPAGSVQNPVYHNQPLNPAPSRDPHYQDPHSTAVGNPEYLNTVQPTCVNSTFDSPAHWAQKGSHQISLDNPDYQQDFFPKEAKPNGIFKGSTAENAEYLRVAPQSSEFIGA
Protocol: Inhibition of EGFR Autophosphorylation in A431 Human Epithelial Cells Stimulated with Epithelial Growth Factor
A431 cells (ATCC #CRL-1555 FZ) are thawed and plated in DMEM containing 10% FBS in a 384-well tissue culture treated plate at 15,000 cells/well. After incubating for 24 hours at 37° C., 5% CO2, the cells are treated with test compound (1% DMSO final concentration) and incubated for 16 hours at 37° C., 5% CO2. EGF (Millipore, 01-107) is added at a final concentration of 60 ng/mL and incubated for 10 minutes. The medium is removed, the cells are lysed, and phospho EGFR is measured (Meso Scale Diagnostics, N31CB-1).
(§1) Representative compounds of the present invention are tested and show BTK inhibition (Table I). […] Additionally, compounds of the present invention, as represented by examples in Table II, are selective for BTK inhibition over other related kinases. […] In this table the BTK activity is measured by IL-6 production in primary CD19^+ B cells, and the EGFR activity is measured by EGFR phosphorylation in A431 cells.

[3] = test system: BTK (IL-6 production in primary CD19+ B cells); test: Inhibition of IL-6 production in B cells co-stimulated with ODN 2006 and anti-hIgD; format: cell-based; settings: B-cell, anti-human IgD + ODN 2006
Protocol: Inhibition of IL-6 Production in B Cells Co-Stimulated with ODN 2006 and anti-hIgD
Primary CD19+ B cells (AllCells #PB010F) are thawed and plated in RPMI containing 10% HI FBS in a 384-well tissue cultured plate at 20,000 cells/well. The cells are treated with test compound (0.5% DMSO final concentration) and incubated for 1 hour at 37° C., 5% CO2. Cells are then stimulated with 5 ug/mL Goat F(ab′)2 anti-human IgD (SouthernBiotech #2032) and 2 uM ODN 2006 (InvivoGen #tlrl-2006) and incubated for 18-24 hours at 37° C., 5% CO2. IL-6 in the supernatant is measured using Meso Scale Discovery kit #K211AKB-6.
as §1

[4] = molecular target: human recombinant Txk (full length, GST-tagged) (Homo sapiens (Human), UniProt P42681); test: TXK Z'-LYTE assay; settings: read-out: TXK IC50, 100 μM ATP;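 also: FRET read-out of kinase phosphorylation of a synthetic peptide labelled with Coumarin and Fluorescein, scored by protease sensitivity of unphosphorylated peptide, incubated at 22 °C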
Chain of human recombinant Txk (full length, GST-tagged) (P42681 whole entry): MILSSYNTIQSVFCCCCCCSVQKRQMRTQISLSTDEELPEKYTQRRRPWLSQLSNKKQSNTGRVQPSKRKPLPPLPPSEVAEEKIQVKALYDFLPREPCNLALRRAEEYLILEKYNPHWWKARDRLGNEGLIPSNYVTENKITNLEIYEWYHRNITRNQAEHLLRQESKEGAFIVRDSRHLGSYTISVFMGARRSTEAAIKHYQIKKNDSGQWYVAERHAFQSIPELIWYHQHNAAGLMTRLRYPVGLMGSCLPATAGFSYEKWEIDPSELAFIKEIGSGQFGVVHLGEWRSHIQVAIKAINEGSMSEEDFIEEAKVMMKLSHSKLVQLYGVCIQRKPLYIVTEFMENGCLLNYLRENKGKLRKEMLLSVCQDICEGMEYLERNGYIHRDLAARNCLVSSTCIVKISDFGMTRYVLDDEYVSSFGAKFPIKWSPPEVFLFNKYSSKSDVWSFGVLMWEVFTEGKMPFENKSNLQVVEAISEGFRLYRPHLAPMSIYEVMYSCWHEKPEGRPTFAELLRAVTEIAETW
Protocol: Z′-LYTE™ Assay (Life Technologies):
(§2) The Z′-Lyte assay employs a FRET-based, coupled-enzyme format and is based on the differential sensitivity of phosphorylated and non-phosphorylated peptides to proteolytic Cleavage. The activity of human recombinant BTK (full length, His-tagged), BMX (full length, His-tagged) or Txk (full length, GST-tagged) is estimated by measuring the phosphorylation of a synthetic FRET peptide substrate labeled with Coumarin and Fluorescein. […] Incubations are carried out at 22° C. in black polypropylene 384-well plates (Corning).
(§3) Representative compounds of the present invention are assessed for inhibition of BTK, BMX, and TXK measuring phosphorylation of a substrate (Z′-LYTE™ assay, Life Technologies) and TEC measuring displacement of a “tracer” (Lanthscreen® Eu Kinase Binding assay, Life Technologies).

[5] = molecular target: human recombinant full length TEC (His-tagged) (Homo sapiens (Human), UniProt P42680); test: TEC Lanthscreen Eu Kinase Binding assay; settings: 1 nM TEC
Chain of human recombinant full length TEC (His-tagged) (P42680 whole entry): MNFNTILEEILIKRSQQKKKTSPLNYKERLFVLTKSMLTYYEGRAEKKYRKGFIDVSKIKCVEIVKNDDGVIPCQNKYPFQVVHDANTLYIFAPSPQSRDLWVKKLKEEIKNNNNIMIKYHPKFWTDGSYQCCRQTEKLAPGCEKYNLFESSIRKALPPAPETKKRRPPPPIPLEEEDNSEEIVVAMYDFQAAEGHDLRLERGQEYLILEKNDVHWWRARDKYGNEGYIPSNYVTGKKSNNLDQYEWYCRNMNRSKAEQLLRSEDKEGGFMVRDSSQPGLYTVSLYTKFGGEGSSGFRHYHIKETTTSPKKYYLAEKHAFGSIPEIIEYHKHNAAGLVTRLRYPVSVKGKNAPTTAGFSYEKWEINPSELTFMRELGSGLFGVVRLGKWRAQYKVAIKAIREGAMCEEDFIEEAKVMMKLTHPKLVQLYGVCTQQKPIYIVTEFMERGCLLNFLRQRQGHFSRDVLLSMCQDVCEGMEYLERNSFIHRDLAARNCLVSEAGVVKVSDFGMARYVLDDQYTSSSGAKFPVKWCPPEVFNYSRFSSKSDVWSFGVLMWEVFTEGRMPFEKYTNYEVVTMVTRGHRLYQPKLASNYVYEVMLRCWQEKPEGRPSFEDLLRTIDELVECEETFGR

[6] = molecular target: human recombinant BTK (full length, His-tagged) (Homo sapiens (Human), UniProt Q06187); test: BTK Z'-LYTE assay; format: biochemical; settings: 25 μM ATP;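 also: FRET readout of kinase phosphorylating a coumarin and fluorescein labelled synthetic peptide, detected via protease sensitivity of unphosphorylated versus phosphorylated substrate, incubated at 22 °C in 384-well plates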
Chain of human recombinant BTK (full length, His-tagged) (Q06187 whole entry): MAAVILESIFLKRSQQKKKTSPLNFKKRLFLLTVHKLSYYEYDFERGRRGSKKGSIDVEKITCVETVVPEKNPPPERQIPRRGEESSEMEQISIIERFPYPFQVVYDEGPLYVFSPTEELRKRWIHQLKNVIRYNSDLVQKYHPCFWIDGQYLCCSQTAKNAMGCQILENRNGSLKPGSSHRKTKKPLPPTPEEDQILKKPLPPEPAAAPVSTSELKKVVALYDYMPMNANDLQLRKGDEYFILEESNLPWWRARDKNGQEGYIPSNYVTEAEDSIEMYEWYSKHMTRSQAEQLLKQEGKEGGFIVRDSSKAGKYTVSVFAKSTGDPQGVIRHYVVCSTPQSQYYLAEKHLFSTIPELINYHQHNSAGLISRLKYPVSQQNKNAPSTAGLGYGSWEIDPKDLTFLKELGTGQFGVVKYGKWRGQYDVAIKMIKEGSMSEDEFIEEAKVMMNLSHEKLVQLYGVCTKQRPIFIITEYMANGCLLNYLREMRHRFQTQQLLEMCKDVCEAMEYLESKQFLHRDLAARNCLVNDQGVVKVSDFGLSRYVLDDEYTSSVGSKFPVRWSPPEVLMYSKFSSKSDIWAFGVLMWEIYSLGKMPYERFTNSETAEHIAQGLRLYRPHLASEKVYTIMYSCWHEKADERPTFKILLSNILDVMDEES
Protocol: Z′-LYTE™ Assay (Life Technologies):
as §2, §3

Chain of human full length His-tagged BTK (Q06187 whole entry): as above

Compound	IC50 [1] [nM]	IC50 [2] [nM]	IC50 [3] [nM]	IC50 [4] [nM]	IC50 [5] [nM]	IC50 [6] [nM]
C=CC(=O)N1CC[C@]2(C1)C[C@H](n1nc(-c3cnn(Cc4ccccc4)c3)c(C(N)=O)c1N)C2 [Example 1]	36	–	–	–	–	–
CC#CC(=O)N1CC[C@]2(C1)C[C@H](n1nc(-c3cnn(Cc4cccc(Cl)c4)c3)c(C(N)=O)c1N)C2 [Example 2]	–	> 10000	0.3	–	–	–
CC#CC(=O)N1CC[C@]2(C1)C[C@H](n1nc(-c3cnn(Cc4cccc(C(F)(F)F)c4Cl)c3)c(C(N)=O)c1N)C2 [Example 3]	–	> 10000	1.2	–	–	–
CC#CC(=O)N1CC[C@]2(C1)C[C@H](n1nc(-c3cnn(Cc4cc(C(F)(F)F)ccc4C)c3)c(C(N)=O)c1N)C2 [Example 4]	1.8	–	–	–	–	–
CC#CC(=O)N1CC[C@]2(C1)C[C@H](n1nc(-c3cnn(Cc4ccc(C)c(C(F)(F)F)c4)c3)c(C(N)=O)c1N)C2 [Example 5]	0.4	–	–	–	–	–
CC#CC(=O)N1CC[C@]2(C1)C[C@H](n1nc(-c3cnn(Cc4cccc(C(F)(F)F)c4C)c3)c(C(N)=O)c1N)C2 [Example 6]	0.4	> 10000	1	43	65	1.5
CC#CC(=O)N1CC[C@]2(C1)C[C@H](n1nc(-c3cnn(Cc4cc(C(F)(F)F)ccc4OC)c3)c(C(N)=O)c1N)C2 [Example 7]	–	> 10000	72	–	–	–
CC#CC(=O)N1CC[C@]2(C1)C[C@H](n1nc(-c3cnn(Cc4cc(C(F)(F)F)ccc4Cl)c3)c(C(N)=O)c1N)C2 [Example 8]	–	> 10000	2.5	–	–	–
CC#CC(=O)N1CC[C@]2(C1)C[C@H](n1nc(-c3cnn(Cc4ccccc4OC(F)(F)F)c3)c(C(N)=O)c1N)C2 [Example 9]	0.6	–	–	–	–	–
CC#CC(=O)N1CC[C@]2(C1)C[C@H](n1nc(-c3cnn(Cc4cccc(C(F)(F)F)c4C#N)c3)c(C(N)=O)c1N)C2 [Example 10]	0.5	> 10000	1.1	100	120	1.4
CC#CC(=O)N1CC[C@]2(C1)C[C@H](n1nc(-c3cnn(Cc4ccccc4C#N)c3)c(C(N)=O)c1N)C2 [Example 11]	0.7	–	–	150	73	1.8
CC#CC(=O)N1CC[C@]2(C1)C[C@H](n1nc(-c3cnn(Cc4ccnc(C(F)(F)F)c4)c3)c(C(N)=O)c1N)C2 [Example 13]	9.1	–	–	–	–	–
CC#CC(=O)N1CC[C@]2(C1)C[C@H](n1nc(-c3cnn(Cc4cccc(C(F)(F)F)n4)c3)c(C(N)=O)c1N)C2 [Example 14]	0.5	> 10000	1.1	–	92	1.7
CC#CC(=O)N1CC[C@]2(C1)C[C@H](n1nc(-c3cnn(C(C)c4cccc(C(F)(F)F)c4)c3)c(C(N)=O)c1N)C2 (some centres unmarked) [Example 15]	1.1	–	–	–	–	–
CC#CC(=O)N1CC[C@]2(C1)C[C@H](n1nc(-c3cnn(Cc4ccccc4C)c3)c(C(N)=O)c1N)C2 [Example 16]	1.5	> 10000	2	430	220	13
CC#CC(=O)N1CC[C@]2(C1)C[C@H](n1nc(-c3cnn([C@H](C)c4cccc(C(F)(F)F)c4)c3)c(C(N)=O)c1N)C2 [Example 18]	–	> 10000	8	–	–	–
C=CC(=O)N1CC[C@]2(C1)C[C@H](n1nc(-c3cnn(Cc4cccc(C(F)(F)F)c4)c3)c(C(N)=O)c1NC)C2 [Example 20]	22	–	–	–	–	–
CC#CC(=O)N1CC[C@]2(C1)C[C@H](n1nc(-c3cnn(Cc4cccc(C5CC5)c4)c3)c(C(N)=O)c1NC)C2 [Example 24]	0.8	–	–	–	–	–
CC#CC(=O)N1CC[C@]2(C1)C[C@H](n1nc(-c3cnn(Cc4cccc(Cl)c4)c3)c(C(N)=O)c1NC)C2 [Example 27]	1.7	> 10000	3.4	–	66	6.6
CC#CC(=O)N1CC[C@]2(C1)C[C@H](n1nc(-c3cnn(Cc4cccc(F)c4)c3)c(C(N)=O)c1N)C2 [Example 28]	0.3	–	–	95	39	1.2

Compound	IC50 [1] [nM]	IC50 [2] [nM]	IC50 [3] [nM]	IC50 [4] [nM]	IC50 [5] [nM]	IC50 [6] [nM]
CC#CC(=O)N1CC[C@]2(C1)C[C@H](n1nc(-c3cnn(Cc4ccc(F)cc4)c3)c(C(N)=O)c1N)C2 [Example 29]	0.8	–	–	92	–	3.6
CC#CC(=O)N1CC[C@]2(C1)C[C@H](n1nc(-c3cnn(Cc4cc(F)cc(C(F)(F)F)c4)c3)c(C(N)=O)c1N)C2 [Example 31]	0.8	–	–	–	–	–
CC#CC(=O)N1CC[C@]2(C1)C[C@H](n1nc(-c3cnn(Cc4cc(C(F)(F)F)ccc4F)c3)c(C(N)=O)c1N)C2 [Example 32]	0.5	> 10000	1.3	–	–	1.9
CC#CC(=O)N1CC[C@]2(C1)C[C@H](n1nc(-c3cn(Cc4cccc(Cl)c4)nc3C)c(C(N)=O)c1N)C2 [Example 34]	0.7	–	–	–	–	–
CC#CC(=O)N1CC[C@]2(C1)C[C@H](n1nc(-c3cn(Cc4cccc(C(F)F)c4)nc3C)c(C(N)=O)c1N)C2 [Example 35]	0.9	–	–	–	–	–
CC#CC(=O)N1CC[C@]2(C1)C[C@H](n1nc(-c3cn(Cc4cccc(C5CC5)c4)nc3C)c(C(N)=O)c1N)C2 [Example 37]	0.8	–	–	–	–	–
CC#CC(=O)N1CC[C@]2(C1)C[C@H](n1nc(-c3cnn(Cc4cc(C)cc(C(F)(F)F)c4)c3)c(C(N)=O)c1N)C2 [Example 38]	3	–	–	–	–	–
CC#CC(=O)N1CC[C@]2(C1)C[C@H](n1nc(-c3cnn(Cc4cc(Cl)cc(C(F)(F)F)c4)c3)c(C(N)=O)c1N)C2 [Example 39]	0.9	–	–	–	–	–
CC#CC(=O)N1CC2(CC(n3nc(-c4cnn(Cc5cc(C)cc(C)c5)c4)c(C(N)=O)c3N)C2)C1 [Example 40]	4.2	–	–	–	–	–
NC(=O)c1c(-c2cnn(Cc3ccccc3)c2)nn([C@H]2C[C@@]3(CCN(C(=O)C#CC4CC4)C3)C2)c1N [Example 41]	0.3	–	–	–	–	–
C=CC(=O)N1CC[C@]2(C1)C[C@H](n1nc(-c3cnn(Cc4cccc(C(F)(F)F)c4)c3)c(C(N)=O)c1N)C2 [Example 42]	78	–	–	–	–	–
C=CC(=O)N1CC[C@]2(C1)C[C@H](n1nc(-c3cnn(Cc4cccc(C5CC5)c4)c3)c(C(N)=O)c1N)C2 [Example 43]	3	–	–	–	–	–
CC#CC(=O)N1CC2(CC(n3nc(-c4cnn(Cc5ccccc5)c4)c(C(N)=O)c3N)C2)C1 [Example 45]	6	–	–	–	–	–
CC#CC(=O)N1CC2(CC(n3nc(-c4cnn(Cc5cc(C)cc(C(F)(F)F)c5)c4)c(C(N)=O)c3N)C2)C1 [Example 46]	7.9	–	–	–	–	–
C=CC(=O)N1CC2(CC(n3nc(-c4cnn(Cc5ccccc5)c4)c(C(N)=O)c3N)C2)C1 [Example 48]	16	–	–	–	–	–
CC#CC(=O)N1CC2(CC(n3nc(-c4cnn(Cc5cc(C(F)(F)F)cc(C(F)(F)F)c5)c4)c(C(N)=O)c3N)C2)C1 [Example 49]	45	–	–	–	–	–
CC#CC(=O)N1CC[C@]2(C1)C[C@H](n1nc(-c3cnn(Cc4cc(F)ccc4C(F)(F)F)c3)c(C(N)=O)c1N)C2 [Example 57]	0.9	–	–	–	–	–
CC#CC(=O)N1CC[C@]2(C1)C[C@H](n1nc(-c3cnn(Cc4ccc(Cl)c(C(F)(F)F)c4)c3)c(C(N)=O)c1N)C2 [Example 58]	–	> 10000	3.4	–	–	–
CC#CC(=O)N1CC[C@]2(C1)C[C@H](n1nc(-c3cnn(Cc4cccc(F)c4F)c3)c(C(N)=O)c1N)C2 [Example 59]	0.3	> 10000	0.4	68	–	0.8
